The target of the test is Trace amine-associated receptor 1 (Homo sapiens) (UniProt Q96RJ0). As to the kind of experiment: TAAR1 antagonists in human receptor cells, late-stage follow-up, cell-based, fluorescence (AID 743234). The settings on record: TAAR1-expressing cells, fluorescence antagonist readout.

Activity calls are given as the source filed them. The rule behind the calls is not given here.

Chain of Trace amine-associated receptor 1 (Homo sapiens) (Q96RJ0 whole entry, looked up, the tested form may be a part): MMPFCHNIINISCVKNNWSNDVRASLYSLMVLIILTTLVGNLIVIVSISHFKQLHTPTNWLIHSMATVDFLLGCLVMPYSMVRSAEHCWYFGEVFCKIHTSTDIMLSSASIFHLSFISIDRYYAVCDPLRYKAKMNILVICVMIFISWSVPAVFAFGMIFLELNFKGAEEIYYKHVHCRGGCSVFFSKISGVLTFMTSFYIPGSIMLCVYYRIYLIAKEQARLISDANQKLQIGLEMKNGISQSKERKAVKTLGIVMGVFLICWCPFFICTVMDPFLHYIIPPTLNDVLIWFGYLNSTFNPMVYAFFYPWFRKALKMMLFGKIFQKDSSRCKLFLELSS

By IC50 is commonly meant the midpoint of a concentration-inhibition curve. With `Cc1ccc(CSCC(=O)Nc2cc(S(=O)(=O)N3CCOCC3)ccc2OCC(F)(F)F)cc1`, the IC50 is 1.6 µM.
On to `COc1cc(NC(=O)c2cc3ccccc3o2)c(OC)cc1Cl`, for which the IC50 is > 29.9 µM (inactive).
With `COc1cccc(-c2nn(-c3ccccc3)cc2C(=O)Nc2nccs2)c1`, the IC50 result is “inactive”.
Next, `O=C(NCCn1cc(SCc2ccccc2F)c2ccccc21)c1c(F)cccc1F`: “inactive”.
Next, `Cc1cccc(C(C#N)c2nc3ccccc3nc2C(F)(F)F)c1` (stereo not given): 1.73 µM.
